Patent US6384047B1, “Benzonaphthyridine” (Byk Gulden Lomberg Chemische Fabrik GmbH, priority 1997, dated 2002)

Legend:
[1] = biological target: PDE1 (Ca2+/calmodulin-dependent) from bovine brain; assay: Inhibition of the PDE isoenzymes: PDE1; format: biochemical; conditions: Ca2+ (1 mM) and calmodulin (100 nM), cGMP as substrate
Experimental: (§1) The PDE activity was determined according to Thompson et al. (1) with a few modifications (2). The test samples contained 40 mM tris HCl (pH 7.4), 5 mM MgCl2, 0.5 μM cAMP or cGMP, [^3H] cAMP or [^3H]cGMP (about 50,000 cpm/sample), the PDE isoenzyme-specific additives described in greater detail below, the given concentrations of inhibitor and an aliquot of the enzyme solution in a total sample volume of […]. […] After preincubation at 37° C. for 5 minutes, the reaction was started by addition of the substrate (cAMP or cGMP). The samples were incubated at 37° C. for a further 15 min. The reaction was stopped by addition of 50 μl of 0.2N HCl. After cooling on ice for 10 minutes and addition of 25 μg of 5′-nucleotidase (snake venom from Crotalus atrox), incubation was carried out again for 10 min. at 37° C. and the samples were then applied to QAE Sephadex A-25 columns. The columns were eluted with 2 ml of 30 mM ammonium formate (pH 6.0). The radioactivity of the eluate was measured and corrected by the corresponding blank values. The proportion of hydrolyzed nucleotide in no case exceeded 20% of the original substrate concentration.
PDE1 (Ca^2+/calmodulin-dependent) from bovine brain: the inhibition of this isoenzyme was investigated in the presence of Ca^2+ (1 mM) and calmodulin (100 nM) using cGMP as a substrate (3).
(§2) The IC50 values were determined from the concentration inhibition curves by nonlinear regression using the program GraphPad InPlot™ (GraphPad Software Inc., Philadelphia, USA).

[2] = biological target: T1, PDE2 (cGMP-stimulated) from rats' hearts (Rattus norvegicus, UniProt Q01062); assay: Inhibition of the PDE isoenzymes: PDE2; format: biochemical; conditions: in presence of cGMP (5 μM), cAMP as substrate, read-out: PDE2 inhibitory concentration as -log IC50 (converted)
T1 construct: PDE2 (cGMP-stimulated) from rats' hearts was purified chromatographically; from tissue; host or cells: rat heart
T1 sequence (Q01062 1-928): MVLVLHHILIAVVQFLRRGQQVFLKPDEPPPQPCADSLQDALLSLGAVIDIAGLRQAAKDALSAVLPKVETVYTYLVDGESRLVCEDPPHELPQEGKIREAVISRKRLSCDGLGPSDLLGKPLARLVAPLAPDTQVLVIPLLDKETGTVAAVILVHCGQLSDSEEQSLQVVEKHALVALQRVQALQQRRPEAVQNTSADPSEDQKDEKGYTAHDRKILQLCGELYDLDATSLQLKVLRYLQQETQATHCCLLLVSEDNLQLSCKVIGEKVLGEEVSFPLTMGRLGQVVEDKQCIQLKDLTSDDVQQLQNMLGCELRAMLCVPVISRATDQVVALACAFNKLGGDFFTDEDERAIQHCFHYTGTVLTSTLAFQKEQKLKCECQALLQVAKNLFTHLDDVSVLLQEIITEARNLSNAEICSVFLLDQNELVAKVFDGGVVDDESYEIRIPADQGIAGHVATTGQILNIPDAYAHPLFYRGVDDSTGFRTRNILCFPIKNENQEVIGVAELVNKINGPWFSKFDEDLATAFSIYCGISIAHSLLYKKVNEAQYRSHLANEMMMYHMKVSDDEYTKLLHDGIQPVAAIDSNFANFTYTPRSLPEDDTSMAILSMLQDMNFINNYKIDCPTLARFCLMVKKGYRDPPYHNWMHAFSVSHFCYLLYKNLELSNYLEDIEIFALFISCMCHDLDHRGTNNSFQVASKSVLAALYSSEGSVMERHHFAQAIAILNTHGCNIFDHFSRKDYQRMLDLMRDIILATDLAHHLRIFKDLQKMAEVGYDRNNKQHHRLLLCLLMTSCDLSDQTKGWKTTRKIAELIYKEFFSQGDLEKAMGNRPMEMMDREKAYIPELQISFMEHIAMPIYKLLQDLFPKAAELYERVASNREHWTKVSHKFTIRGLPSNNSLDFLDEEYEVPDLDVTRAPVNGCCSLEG
Experimental: as §1
PDE2 (cGMP-stimulated) from rats' hearts was purified chromatographically [Schudt et al. (4)] and investigated in the presence of cGMP (5 μM) using cAMP as a substrate.
as §2

[3] = biological target: T2, PDE3 (cGMP-inhibited), homogenates of human blood platelets (Homo sapiens, UniProt Q14432); assay: Inhibition of the PDE isoenzymes: PDE3; format: biochemical; conditions: cAMP as substrate, read-out: PDE3 inhibitory concentration as -log IC50 (converted)
T2 construct: were investigated in homogenates of human blood platelets; from tissue; host or cells: human blood platelets (homogenate)
T2 sequence (Q14432 whole entry): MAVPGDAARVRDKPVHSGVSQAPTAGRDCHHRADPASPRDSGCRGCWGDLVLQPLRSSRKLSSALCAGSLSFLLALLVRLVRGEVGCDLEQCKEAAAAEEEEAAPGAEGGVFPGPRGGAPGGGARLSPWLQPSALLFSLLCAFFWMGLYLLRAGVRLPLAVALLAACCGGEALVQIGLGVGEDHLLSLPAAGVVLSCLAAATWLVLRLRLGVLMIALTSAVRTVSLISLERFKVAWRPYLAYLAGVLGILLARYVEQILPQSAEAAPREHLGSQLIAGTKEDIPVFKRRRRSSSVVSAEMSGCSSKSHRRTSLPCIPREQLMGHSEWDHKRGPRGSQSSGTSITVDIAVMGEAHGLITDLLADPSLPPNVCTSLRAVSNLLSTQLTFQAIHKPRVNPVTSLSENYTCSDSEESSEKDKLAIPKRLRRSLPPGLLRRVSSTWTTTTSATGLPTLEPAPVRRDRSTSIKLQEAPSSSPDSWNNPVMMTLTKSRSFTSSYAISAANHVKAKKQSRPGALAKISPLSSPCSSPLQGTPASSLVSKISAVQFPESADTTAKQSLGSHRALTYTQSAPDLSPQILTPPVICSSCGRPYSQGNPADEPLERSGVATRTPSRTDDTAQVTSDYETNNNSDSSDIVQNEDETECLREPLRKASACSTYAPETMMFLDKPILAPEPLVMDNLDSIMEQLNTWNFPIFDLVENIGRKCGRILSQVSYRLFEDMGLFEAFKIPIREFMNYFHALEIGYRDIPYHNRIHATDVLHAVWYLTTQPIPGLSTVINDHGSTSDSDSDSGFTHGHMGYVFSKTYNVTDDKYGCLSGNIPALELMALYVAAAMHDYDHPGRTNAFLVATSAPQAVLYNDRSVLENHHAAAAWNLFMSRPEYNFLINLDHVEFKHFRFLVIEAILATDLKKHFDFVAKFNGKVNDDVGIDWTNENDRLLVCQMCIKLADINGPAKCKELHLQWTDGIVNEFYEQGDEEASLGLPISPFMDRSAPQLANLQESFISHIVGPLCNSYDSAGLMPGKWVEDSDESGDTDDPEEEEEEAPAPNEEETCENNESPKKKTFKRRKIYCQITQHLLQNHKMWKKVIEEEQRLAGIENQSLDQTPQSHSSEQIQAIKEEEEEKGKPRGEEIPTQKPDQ
Experimental: as §1
(§3) PDE3 (cGMP-inhibited) and PDE5 (cGMP-specific) were investigated in homogenates of human blood platelets [Schudt et al. (4)] using cAMP or cGMP as a substrate.
as §2

[4] = biological target: PDE4 (cAMP-specific), cytosol of human polymorphonuclear leucocytes (PMNL); assay: Inhibition of the PDE isoenzymes: PDE4; format: biochemical; conditions: cAMP as substrate, motapizone (1 μM) present
Experimental: as §1
PDE4 (cAMP-specific) was investigated in the cytosol of human polymorphonuclear leucocytes (PMNL) [isolated from leucocyte concentrates, see Schudt et al. (5)] using cAMP as a substrate. The PDE3 inhibitor motapizone (1 μM) was used in order to suppress the PDE3 activity emanating from contaminating blood platelets.
as §2

[5] = biological target: T3, PDE5 (cGMP-specific), homogenates of human blood platelets (Homo sapiens, UniProt O76074); assay: Inhibition of the PDE isoenzymes: PDE5; format: biochemical; conditions: cGMP as substrate, read-out: PDE5 inhibitory concentration as -log IC50 (converted)
T3 construct: were investigated in homogenates of human blood platelets; from tissue; host or cells: human blood platelets (homogenate)
Experimental: as §1, §3, §2

human PMNL = assay: Inhibition of the formation of reactive oxygen species (FMLP-stimulated chemiluminescence) in human PMNL; format: cell-based; conditions: 0.05 h, FMLP 100 nM, luminol-potentiated chemiluminescence, AUC over 3 min, read-out: Inhibition of the FMLP-stimulated chemiluminiscence in human PMNL in vitro, inhibitory concentration as -log IC50 (converted)
From the text: In the investigation of PDE4 inhibition at the cellular level, the activation of inflammatory cells has particular importance. An example which may be mentioned is the FMLP (N-formylmethionylleucylphenylalanine)-induced superoxide production of neutrophilic granulocytes, which can be measured as luminol-potentiated chemiluminescence [McPhail L C, Strum S L, Leone P A and Sozzani S, The neutrophil respiratory burst mechanism. In “Immunology Serie” 1992, 57, 47-76; ed. Coffey R G (Marcel Decker, Inc., New York-Basel-Hong Kong)].
The formation of reactive oxygen species determined by means of luminol-potentiated chemiluminescence (5) and the isolation of the PMNL from human blood (6) was carried out essentially as described in (5) and (6): equal-size portions (0.5 ml) of the cell suspension (10^7 cells/ml) were preincubated at 37° C. for 5 min. In the absence or presence of the compounds to be investigated in a buffer solution containing 140 mM NaCl, 5 mM KCl, 10 mM HEPES, 1 mM CaCl2/MgCl2, 1 mg/ml of glucose, 0.05% (w/v) BSA (bovine serum albumin), 10 μM luminol and 4 μM microperoxidase. […]
as §2

Compound	PDE1 inhibitory concentration as -log IC50 [1]	IC50 [2]	IC50 [3]	PDE4 inhibitory concentration as -log IC50 [4]	IC50 [5]	IC50 (human PMNL)	melting point
CCOc1cc2c(cc1OCC)[C@@H]1CN(C)CC[C@@H]1N=C2c1ccc(NS(=O)(=O)c2ccc(C)cc2)cc1 (relative stereo) [Compound 1, (−)-cis-8,9-Diethoxy-2-methyl-6-[4-(p-toluenesulfonamido)-phenyl]-1,2,3,4,4a,10b-hexahydro-benzo[c][1,6]naphthyridine]	<5	1100 nM	79.4 nM	8.60	91.2 nM	40.7 nM	267 to 268 °C
CCOc1cc2c(cc1OC)C(c1ccc(NS(=O)(=O)c3ccc(C)cc3)cc1)=N[C@H]1CCN(C)C[C@@H]21 (relative stereo) [Compound 2, (−)-cis-9-Ethoxy-8-methoxy-2-methyl-6-[4-(p-toluenesulfonamido)-phenyl]-1,2,3,4,4a,10b-hexahydro-benzo[c][1,6]naphthyridine]	5.14	407 nM	52.5 nM	9.00	182 nM		207 to 219 °C
COc1cc2c(cc1OC)[C@@H]1CN(C)CC[C@@H]1N=C2c1ccc(NS(=O)(=O)c2ccc(C)cc2)cc1 (relative stereo) [Tolafentrine, (−)-cis-8,9-Dimethoxy-2-methyl-6-[4-(p-toluenesulfonamido)-phenyl]-1,2,3,4,4a,10b-hexahydrobenzo[c][1,6]naphthyridine, reference compound]	4.75	813 nM	95.5 nM	7.20	2340 nM	851 nM	
